Assay results published in US8765198B2, “Anti-stretch mark active agent, and compositions containing same” (Laboratoires Expanscience, priority 2008, dated 2014).

Legend:
Type in all cases: cell-based
IL-1β = assay: Anti-inflammatory potential: IL-1β ELISA in keratinocytes stimulated with PMA
Procedure: Keratinocytes were inoculated in KGM2 medium. After 24 hours of incubation, the cells were pre-treated with 0.2% (dry matter) arabinogalactan for 24 hours. Next, the cells were stimulated by adding 10 μg/ml PMA (phorbol-12-myristate-13-acetate; Sigma) for 16 hours, in order to mimic inflammation.
At the end of the treatment, the cell supernatants were collected and IL-1β was assayed using ELISA kits (R&D Systems).
On the cell layers, a neutral red assay was carried out: optical density, proportional to the quantity of living cells, is read at 540 nm.
The quantity of IL-1β is expressed by living cells according to the formula: OD ELISA IL-1β/OD540.
(§1) The significance of the results was evaluated by a Student's t-test: *p<0.05, **p<0.01.

collagen I gene = assay: Preventive effect on collagen I gene expression in fibroblasts treated with hydrocortisone (hormonal environment)
Description: (§2) The quantitative real-time polymerase chain reaction (qRT-PCR) is a method that makes it possible to measure in a specific and quantitative way the expression of genes of interest by amplification. Quantification is based on the real-time monitoring of gene amplification using SYBR Green as a reporter system. SYBR Green is a molecule with fluorescent properties which is intercalated in double-stranded DNA. […]
(§3) The quantities of DNA are compared in the exponential part, the time during which the increase in the quantity of DNA is proportional to the initial quantity of the matrix. […]
(§4) At the end of the treatment of the cells, total RNA was extracted (RNeasy MiniKit) and then assayed quantitatively in chips using the Experion system (Experion RNA StdSens kit). […]
(§5) Expression of the genes of reference is analyzed in the same samples as those for which the expression of the genes of interest is evaluated in order to normalize the results.
(§6) Variation in the number of copies of the gene of interest during the treatment is then calculated according to the following formula: ΔΔCt=ΔCtcontrol−ΔCttreatment
(§7) Finally, the relative quantity or level of expression of the genes of interest normalized by the level of expression of the reference genes in the untreated and treated samples is obtained by the formula RQ=2^ΔΔCt.
as §1

collagen type III gene = assay: Gene expression of collagen III in normal fibroblasts by quantitative real-time PCR; conditions: 48 hours of treatment, 0.2% dry matter arabinogalactan or 5 ng/ml TGF-β1
Description: as §2, §3, §4, §5, §6, §7, §1

[1] = system: gene coding for collagen type I; assay: Gene expression of collagen I in normal fibroblasts by quantitative real-time PCR; conditions: 48-hour treatment, normalized to GAPDH, 0.2% arabinogalactan or 5 ng/ml TGF-β1
Description: as §2, §3, §4, §5, §6, §7, §1

fibroblasts = assay: Study of fibroblast proliferation by the MTT method; conditions: 0.2% arabinogalactan, 48 hours of treatment
Procedure: The MTT [3-(4,5-dimethylthiazol-2-yl)-2,5-diphenyltetrazolium bromide] assay is a colorimetric test which measures cell viability. MTT is a yellow water-soluble tetrazolium salt; metabolically active cells are capable of reducing it into formazan blue crystals.
At D0, the fibroblasts are inoculated in RPMI medium with 1% FCS.
At D1, the cells are treated with RPMI with 10% FCS (positive control) or with 0.2% arabinogalactan for 48 hours.
At the end of the treatment, cell viability is quantified by an MTT assay: after 3 hours of contact with MTT, the formazan crystals formed are solubilized by DMSO and the optical density, proportional to the quantity of metabolically active and thus living cells, is read at 570 nm against the blank (without cells).
as §1

[2] = system: normal human keratinocytes; assay: Prerequisite cutaneous tolerance: pro-inflammatory potential, interleukins 1 and 8 and TNF-α assayed in the cell supernatant; conditions: 0.2% dry matter
Procedure: A. Prerequisite Cutaneous Tolerance • Inflammation: The pro-inflammatory potential of arabinogalactan was evaluated on normal human keratinocytes. Interleukins 1 and 8 as well as TNF-α, early mediators of inflammation, were assayed in the cell supernatant.

CCCCCCCCCCCCCC(=O)O[C@@H]1[C@@H](C)[C@@]2(O)[C@@H](C=C(CO)C[C@]3(O)C(=O)C(C)=C[C@@H]23)[C@@H]2C(C)(C)[C@]12OC(C)=O [PMA, phorbol-12-myristate-13-acetate, reference compound]
salting out of IL-1β under stress (IL-1β; keratinocytes, 10 μg/ml PMA 16 hours): massively salt-out IL-1β

C[C@]12CCC(=O)C=C1CC[C@@H]1[C@@H]2[C@@H](O)C[C@@]2(C)[C@H]1CC[C@]2(O)C(=O)CO [hydrocortisone, reference compound]
inhibition of expression of the collagen I gene (collagen I gene; fibroblasts, 50 μM hydrocortisone, 48 hours of treatment): 57%

TGF-β: growth factor with a strong capacity to induce molecules of the extracellular matrix; used as a positive control [reference compound]
increase of expression of the collagen type III gene (collagen type III gene): 147% | increase of expression of the gene coding for collagen type I [1]: +223%

arabinogalactan
fibroblast proliferation / cell regeneration (MTT, OD570) (fibroblasts): +20% | increase of expression of the collagen type III gene (collagen type III gene): +81% | pro-inflammatory potential [2]: not pro-inflammatory | salting out of interleukins 1 and 8 or TNF-α ([2]; cell supernatant): does not lead to salting out of interleukins 1 and 8 or TNF-α | increase of expression of collagen I in the presence of hydrocortisone (collagen I gene; fibroblasts pretreated 24 hours with 0.2% arabinogalactan, then arabinogalactan + 50 μM hydrocortisone 48 hours): 37% | inhibition of salting out of IL-1β (OD ELISA/OD540) (IL-1β; keratinocytes pretreated 24 hours with 0.2% dry matter arabinogalactan, then 10 μg/ml PMA 16 hours): −21% | increase of expression of the gene coding for collagen type I [1]: +38%
